Laboratory results as given in patent US6034134A, “1-Amino-alkylcyclohexane NMDA receptor antagonists” (Merz + Co. GmbH & Co., priority 1998, dated 2000).
Where a name gives a salt, the structure may show the parent alone. Read-outs that look alike come from different tables or passages of the source.

Experiments:
NMDA receptor = test: Patch clamp: NMDA-induced inward currents in cultured hippocampal neurones; format: cell-based, rat
Description: Hippocampi were obtained from rat embryos (E20 to E21) and were then transferred to calcium and magnesium free Hank's buffered salt solution (Gibco) on ice. Cells were mechanically dissociated in 0.05% DNAase/0.3% ovomucoid (Sigma) following an 8 minute pre-incubation with 0.66% trypsin/0.1% DNAase (Sigma). The dissociated cells were then centrifuged at 18 ×g for 10 minutes, re-suspended in minimum essential medium (Gibco) and plated at a density of 150,000 cells cm^-2 onto poly-L-lysine (Sigma)-precoated plastic petri dishes (Falcon). The cells were nourished with NaHCO3 /HEPES-buffered minimum essential medium supplemented with 5% fetal calf serum and 5% horse serum (Gibco) and incubated at 37° C. with 5% CO2 at 95% humidity. […] Thereafter the medium was exchanged partially twice weekly.
Patch clamp recordings were made from these neurones with polished glass electrodes (4-6 m.OMEGA.) in the whole cell mode at room temperature (20-22° C.) with the aid of an EPC-7 amplifier (List). Test substances were applied by switching channels of a custom-made fast superfusion system with a common outflow (10-20 ms exchange times). The contents of the intracellular solution were as follows (mM): CsCl (120), TEACl (20), EGTA (10), MgCl2 (1), CaCl2 -(0.2), glucose (10), ATP(2), cAMP (0.25); pH was adjusted to 7.3 with CsOH or HC1. The extracellular solutions had the following basic composition (mM): NaCl (140), KCl (3), CaCl2 (0.2), glucose (10), HEPES (10), sucrose (4.5), tetrodotoxin (TTX 3*10^-4). Glycine (1 μM) was present in all solutions: a concentration sufficient to cause around 80-85% activation of glycineB receptors. Only results from stable cells were accepted for inclusion in the final analysis, i.e., following recovery of responses to NMDA by at least 75% of their depression by the antagonists tested.
(§1) IC50 s in patch clamp, excitotoxicity, and binding studies were calculated according to the four parameter logistic equation using the Grafit computer program (Erithacus Software, England). Ki value for binding studies were then determined according to Cheng and Prusoff. Binding values presented are means±SEM of 3-5 determinations (each performed in duplicate). […] Pearson product moment correlation analysis (Sigma Stat, Jandel Scientific) was used to compare in vitro potencies and in vivo anticonvulsant activity.

cortical neurones = test: Excitotoxicity: glutamate toxicity in cultured cortical neurones (MTT); format: cell-based, rat; settings: for IC50: Rattus norvegicus, Cortical neurone
Description: Cortical neurones were obtained from cerebral cortices of 17/18 day old fetal rats (Wistar), in general following the dissociation procedure described by. After short trypsinization and gentle trituration with fire-polished Pasteur pipettes, the cell suspension was washed by centrifugation. Cells were suspended in serum-free Neurobasal medium with B27 supplement (GIBCO) before plating onto poly-L-lysine (Sigma; 0.2 mg/ml, 20 h, 4° C.) and laminin (Sigma; 2 μg/ml, 1 h, 37° C.)-coated 96-well plates (Falcon, Primaria) at a density of 5×10^4 cells/well. Cortical neurones were maintained at 37° C. in humidified 10% CO2 /90% air. […] The medium was changed first after 4 days in vitro and then every 4 days by replacing 2/3 of the medium with astrocyte-conditioned medium. Cortical neurones between day 12 and 14 in culture were used for the experiments.
New-born rat astrocytes were isolated non-enzymatically according to the method of [24]. Briefly, both hemispheres were dissected from 2-day-old rats, passed through an 80 μm gauze, and triturated with Pasteur pipettes. Cell suspension was made in Dulbecco's modified essential medium (DMEM, Gibco) supplemented with 10% fetal calf serum (FCS, Hyclone), 2 mM glutamine (Gibco) and 50 μg/ml gentamycin and transferred into untreated, plastic culture flasks (Corning; […]). Two days after plating the flasks were shaken for 10 minutes on a rotary platform (150 U/min) to remove microglial cells. The cultures were grown to confluency within 14 days, and the culture medium was changed twice weekly. Thereafter, the glial monolayers were extensively washed with serum-free Neurobasal medium (Gibco) to remove the serum. Flasks were then shaken several times to remove oligodendrocytes and neurones. To obtain conditioned medium from primary astrocytes, the cultures were incubated with fresh Neurobasal medium supplemented with B27 andglutamine. Every 2-3 days the conditioned medium was collected and replaced by fresh medium up to 4 times.
Exposure to EAA was performed in serum-free Neurobasal medium containing 100 μM glutamate and the drug to be tested. After 20 h of incubation, the cytotoxic effect was morphologically examined under a phase contrast microscope and biochemically quantified by measuring cell viability with the MTT test (Promega). This calorimetric assay measures the reduction of a tetrazolium component (MTT) into an insoluble formazan product by the mitochondria of living cells. After incubation of the cortical neurones with the dye solution for approximately 1-4 hours, a solubilization solution was added to lyse the cells and solubilize the colored product (incubation overnight at 37° C., 10% CO2, 90% RH). These samples were then read using an Elisa plate reader (Thermomax, MWG Biotech) at a wavelength of 570 nm. The amount of color produced was directly proportional to the number of viable cells.
as §1

[1] = Maximal electroshock (MES)-induced convulsions in mice; format: in vivo; settings: for ED50: Mus musculus; for MES ED50: 30 min
Description: NMR female mice (18-28 g) housed 5 per cage were used for the maximal electroshock (MES) and motor impairment tests. […] All compounds were dissolved in 0.9% saline.
The MES test was performed together with tests for myorelaxant action (traction reflex) and motor coordination (rotarod). For the traction reflex test mice were placed with their forepaws on a horizontal rod and were required to place all 4 paws on the wire within 10 seconds. To test ataxia (motor coordination) mice were placed on rotarod (5 rpm) and were required to remain on the rod for 1 minute. […] These tests were followed by MES (100 Hz, 0.5 second shock duration, 50 mA shock intensity, 0.9 ms impulse duration, Ugo Basile) applied through corneal electrodes. The presence of tonic convulsions was scored (tonic extension of hind paws with minimum angle to the body of 90°). The aim was to obtain ED50 s for all parameters scored (anticonvulsive activity and motor side effects) with use of the Litchfield Wilcoxon test for quantal dose responses. Division of the ED50 for side effects (ataxia or myorelaxation) by the ED50 for antagonism of electroshock convulsions was used as a therapeutic index (TI). […]

[2] = Description: All animals were kept with water and food ad libitum under a 12 hour light-dark cycle (light on at 6 a.m.) and at a controlled temperature (20±0.5° C.). All e experiments were performed between 10 a.m. and 5 p.m. Tested agents were injected 30 min. i.p. before the induction of convulsions if not stated otherwise (see below). All compounds were dissolved in 0.9% saline.
[3] = Table 9; NMDA-induced currents; read-out: Patch Clamp IC50
[4] = Table 9, 100 μM glutamate, read-out: Glut Tox IC50
[5] = ip, 0.5 h, Table 8, mice, i.p., 95% confidence limits in parentheses, read-out: MES ED50
[6] = read-out: Patch Clamp IC50; Table 7; NMDA 200 μM with glycine 1 μM at -70 mV
[7] = read-out: Patch Clamp IC50; Table 9; NMDA-induced currents
[8] = 20 h, read-out: Glut. Tox. IC50
[9] = ip, 0.5 h, Table 7, mice, i.p., 30 min before, read-out: MES ED50
[10] = Table 7; NMDA 200 μM with glycine 1 μM at -70 mV; read-out: Patch Clamp IC50
[11] = Table 7, 100 μM glutamate, 20 h, read-out: Glut. Tox. IC50
[12] = Table 8, mice, i.p., 95% confidence limits in parentheses

Structure (SMILES)	IC50 (NMDA receptor; [3]) [µM]	IC50 (cortical neurones; [4]) [µM]	ED50 [1, 5] [mg/kg]	Min Lethality ([2]; mouse, in vivo, ip) [mg/kg]	IC50 (NMDA receptor; [6]) [µM]	IC50 (NMDA receptor; [7]) [µM]	IC50 (cortical neurones; [8]) [µM]	IC50 (cortical neurones; read-out: Glut Tox IC50) [µM]	ED50 [1, 9] [mg/kg]	Min Lethality ([2]; i.p., minimal lethal dose) [mg/kg]	IC50 (NMDA receptor; [10]) [µM]	IC50 (cortical neurones; [11]) [µM]	neuroprotection in vitro (in words) (cortical neurones)	ED50 ([1]; iv, read-out: ED50 (anticonvulsive) following i.v. administration) [mg/kg]	ED50 ([1]; po, read-out: ED50 (anticonvulsive) following p.o. administration) [mg/kg]	ED50 ([1]; sc, read-out: ED50 (anticonvulsive) following s.c. administration) [mg/kg]	ED50 ([1]; ip, 0.5 h, read-out: MES ED50) [mg/kg]	MES ED50 [1, 12]
C[C@@H]1C[C@H](C)C[C@](C)(N)C1 [MRZ 2/681, 1,cis-3,cis-5-Trimethylcyclohexylamine hydrochloride hydrate]	30	26.9	27.9	> 50	–	–	–	–	–	–	–	–	–	–	–	–	–	–
CC[C@H]1CC(C)(C)C[C@](C)(N)C1 [MRZ 2/682, (1R, 5S) trans-3-Ethyl-1,5,5-trimethylcyclohexylamine hydrochloride]	3.9	3.11	7.6	> 50	–	–	–	–	–	–	–	–	–	–	–	–	–	–
CC[C@H]1CC(C)(C)C[C@@](C)(N)C1 [MRZ 2/683, (1S, 5S) cis-3-Ethyl-1,5,5-trimethylcyclohexylamine hydrochloride hydrate]	4.3	5.08	12.2	> 50	–	–	–	–	–	–	–	–	–	–	–	–	–	–
CC12CC3CC(C)(C1)CC(N)(C3)C2 [Memantine, reference compound]	–	–	6.9	–	2.3	2.87	1.3	1.4	6.9	> 108	–	–	–	–	–	–	–	–
CC1(C)CC(N)CC(C)(C)C1 [Mrz 2/557]	18.5	6.7	43.9	> 70	–	–	–	–	43.9	–	18.5	6.7	–	–	–	–	–	–
CC1(C)CC(C)(C)CC(C)(N)C1 [Mrz 2/579, 1-amino-1,3,3,5,5-pentamethylcyclohexane]	1.29	2.16	3.6	–	–	–	–	–	3.6	108	1.3	2.2	most potent	2.5	13.7	4.6	–	–
CC1(C)CC(CN)CC(C)(C)C1.Cl [Mrz 2/580, 3,3,5,5-tetramethylcyclohexylmethylamine hydrochloride]	12.9	5.6	27.3	–	–	–	–	–	27.3	50	12.9	5.6	–	–	–	–	–	–
CCC1(N)CC(C)(C)CC(C)(C)C1 [Mrz 2/600, 1-amino-1-ethyl-3,3,5,5-tetramethylcyclohexane]	3.49	2.1	22.6	–	–	–	–	–	22.6	50	3.7	2.1	–	–	–	–	–	–
CCCC1(N)CC(C)(C)CC(C)(C)C1 [Mrz 2/601, 1-amino-1-propyl-3,3,5,5-tetramethylcyclohexane]	–	–	–	–	10.5	10	3.5	3.5	–	50	–	–	–	–	–	–	15.6	15.6 (10.4-23.4) mg/kg
CCCC1(C)CC(C)(C)CC(C)(N)C1 (stereo not drawn) [Mrz 2/614]	13.9	1.26	23.5	> 50	–	–	–	–	23.5	–	13.9	> 10	–	–	–	–	–	–
CCC1(C)CC(C)(C)CC(C)(N)C1 (stereo not drawn) [Mrz 2/615, 1-amino-1,3,5,5-tetramethyl-3-ethylcyclohexane]	2.9	2.29	6.1	–	–	–	–	–	6.1	> 50	2.9	2.3	–	–	–	–	–	–
CC1CC(C)CC(C)(N)C1 (stereo not drawn) [Mrz 2/616, 1-amino-1,3,5-trimethylcyclohexane]	33.2	9.1	24	–	–	–	–	–	24	> 50	34.2	9.1	–	–	–	–	–	–
CCCC1(C)CCCC(C)(N)C1 (stereo not drawn) [Mrz 2/617]	63.9	> 70	54.9	> 50	–	–	–	–	54.9	–	57.4	> 70	–	–	–	–	–	–
CCC1(C)CCCC(C)(N)C1 (stereo not drawn) [Mrz 2/620]	99	38.4	41.3	> 50	–	–	–	–	41.3	–	99	38.4	–	–	–	–	–	–
CC1(C)CCCC(C)(N)C1 (stereo not drawn) [Mrz 2/621]	–	–	–	–	92.4	92.4	> 100	> 100	–	> 60	–	–	–	–	–	–	36.9	36.9 (22.6-60.3) mg/kg
CCC1(CC)CC(C)(C)CC(C)(N)C1 (stereo not drawn) [Mrz 2/623, 1-amino-1,5,5-trimethyl-3,3-diethylcyclohexane]	3.7	4.5	13.1	–	–	–	–	–	13.1	> 30	3.7	4.5	–	–	–	–	–	–
CCCC1(CCC)CC(C)(C)CC(C)(N)C1 (stereo not drawn) [Mrz 2/626]	9.6	19	41.2	> 50	–	–	–	–	41.2	–	9.6	19	–	–	–	–	–	–
